From US10473645B2, “Methods for identifying a receptor for a ligand and uses thereof” (UNIVERSITE DE GENEVE, priority 2014, dated 2019)

How the values were obtained:
olfr935 = test: OR transcript level by RT-qPCR after in vivo odorant exposure; parameters: species or system mouse; key: The transcript downregulation of 21 out of the 26 olfactory receptor candidates obtained by RNAseq was confirmed by qPCR; false RNAseq positive candidates, namely OR candidates for which in fact mRNA was not downregulated following acetophenone exposure; conditions: 5% acetophenone exposure
Experimental: (§1) In vivo exposure to odorant: Starting 48 h before experiments, mice were habituated to pure DMSO on a cotton ball. 200 μl were pipetted directly onto the cotton and placed in the cage, replacing any cotton that was already in the cage for nest-making purposes.
(§2) On the day of the experiment, mice receiving odorants were transferred to a different room, where they were exposed to a cotton ball on which 200 μl of odorant diluted in pure DMSO were deposited. Exposures started in the morning between 8 and 10 am (that is two hours after lights were on) and mice were killed and dissected between 1 and 3 pm. […] If a number of different odorants were tested in the same experiment, a different overpressurized room would always be used for each odorant to avoid odor cross-contamination.
(§3) After odorant exposure, mice were killed by cervical dislocation and immediately decapitated. The main olfactory epithelia (MOE), were harvested in their entirety and transferred to a tube containing 600 μl of lysis buffer and β-mercaptoethanol (RNAeasy kit, Qiagen, following the manufacturer protocol) and a 0.5 cm diameter steel ball, and then put on ice. Samples were then homogenized using a FastPrep®-24 instrument (MP Biomedicals) at 6 m/s for 30 s and left on ice. RNA extraction was performed on all samples in parallel using the Qiagen RNeasy Mini® kit following the manufacturer's instructions. Two DNase treatments were performed on all samples: first using the Qiagen RNase-Free DNase Set® and then using the Life Technologies Ambion DNase I® kit. RNA samples were then aliquoted and stored at −80° C.
(§4) RNA concentrations were determined using an Amersham Ultrospec® 3100 Pro spectrophotometer, and RNA quality was evaluated with an Agilent Technologies 2100 Bioanalyzer®. Each reverse transcription was performed with 0.5 μg RNA using the Takara Primescript® kit, in a final volume of 10 μl. Primers for reverse transcription were equal mixtures of poly-T nucleotides and random hexamers. Negative controls (omitting the reverse transcriptase enzyme) were performed for each sample. 1/14th of the cDNA preparation was used for each triplicated qPCR reaction.
(§5) qPCR Ct values were analyzed using an in-house developed Microsoft Excel® macro file. Triplicate values were compared and outliers (values with a difference higher than 0.5 Ct to their nearest neighbor) were discarded. The number of conditions with an outlying value was always less than 10% of the total number of conditions. Ct values were converted to quantities relative to the maximum for each given gene. Selected reference genes were then analyzed for variance using the geNorm algorithm. All values were normalized with the olfactory tissue-specific genes Omp and Adcy3. β-Actin was used as a non-tissue-specific reference gene to control for differences in dissection between samples.
(§6) Mice (n=6) were exposed to 5% acetophenone or to a “neutral” control condition for 5 hours. An olfactory cDNA library corresponding to each animal was deep sequenced and the ratios of odorant receptor mRNA concentrations relative to controls were plotted (FIG. 3). […] Based on transcriptional downregulation levels observed by RNAseq following acetophenone exposure, a list of 26 candidate responsive ORs was determined (FIG. 3), that reached 74% decrease (Olfr145) or even over 80% (Olfr169) relative to controls. […] The transcript downregulation of 21 out of the 26 olfactory receptor candidates obtained by RNAseq was confirmed by qPCR.

olfr922 = test: as above; parameters: species or system mouse; key: The transcript downregulation of 21 out of the 26 olfactory receptor candidates obtained by RNAseq was confirmed by qPCR; false RNAseq positive candidates, namely OR candidates for which in fact mRNA was not downregulated following acetophenone exposure; conditions: 5% acetophenone exposure
Experimental: as §1, §2, §3, §4, §5, §6

olfr478 = target: T1, olfr478 (Mus musculus, UniProt Q8VG04); test: as above; parameters: key: The transcript downregulation of 21 out of the 26 olfactory receptor candidates obtained by RNAseq was confirmed by qPCR; false RNAseq positive candidates, namely OR candidates for which in fact mRNA was not downregulated following acetophenone exposure; conditions: 5% acetophenone exposure
T1 construct: from tissue; host or cells: main olfactory epithelium of living mice
Experimental: as §1, §2, §3, §4, §5, §6

olfr19 = target: T2, olfr19 (Mus musculus, UniProt Q9JHB2); test: as above; parameters: key: The transcript downregulation of 21 out of the 26 olfactory receptor candidates obtained by RNAseq was confirmed by qPCR; false RNAseq positive candidates, namely OR candidates for which in fact mRNA was not downregulated following acetophenone exposure; conditions: 5% acetophenone exposure
T2 construct: from tissue; host or cells: main olfactory epithelium of living mice
Experimental: as §1, §2, §3, §4, §5, §6

olfr476 = target: T3, olfr476 (Mus musculus, UniProt Q8VGI4); test: as above; parameters: key: The transcript downregulation of 21 out of the 26 olfactory receptor candidates obtained by RNAseq was confirmed by qPCR; false RNAseq positive candidates, namely OR candidates for which in fact mRNA was not downregulated following acetophenone exposure; conditions: 5% acetophenone exposure
T3 construct: from tissue; host or cells: main olfactory epithelium of living mice
Experimental: as §1, §2, §3, §4, §5, §6

olfr490 = target: T4, olfr490 (Mus musculus, UniProt Q8VFD2); test: as above; parameters: key: The transcript downregulation of 21 out of the 26 olfactory receptor candidates obtained by RNAseq was confirmed by qPCR; false RNAseq positive candidates, namely OR candidates for which in fact mRNA was not downregulated following acetophenone exposure; conditions: 5% acetophenone exposure
T4 construct: from tissue; host or cells: main olfactory epithelium of living C57BL/6 mice
Experimental: as §1, §2, §3, §4, §5, §6

olfr145 [1] = target: T5, olfr145 (Mus musculus, UniProt Q60882); test: as above; parameters: key: The transcript downregulation of 21 out of the 26 olfactory receptor candidates obtained by RNAseq was confirmed by qPCR; false RNAseq positive candidates, namely OR candidates for which in fact mRNA was not downregulated following acetophenone exposure; conditions: 5% acetophenone exposure
T5 construct: from tissue; host or cells: main olfactory epithelium of living mice
Experimental: as §1, §2, §3, §4, §5, §6

olfr143 = target: T6, olfr143 (Mus musculus, UniProt P34985); test: as above; parameters: key: The transcript downregulation of 21 out of the 26 olfactory receptor candidates obtained by RNAseq was confirmed by qPCR; false RNAseq positive candidates, namely OR candidates for which in fact mRNA was not downregulated following acetophenone exposure; conditions: 5% acetophenone exposure
T6 construct: from tissue; host or cells: main olfactory epithelium of living mice
Experimental: as §1, §2, §3, §4, §5, §6

Olfr1178 = test: as above; parameters: species or system mouse; conditions: 5% odorant, 5 hours
Experimental: as §1
On the day of the experiment, mice receiving odorants were transferred to a different room, where they were exposed to a cotton ball on which 200 μl of odorant diluted in pure DMSO were deposited. Exposures started in the morning between 8 and 10 am (that is two hours after lights were on) and mice were killed and dissected between 1 and 3 pm. […]
RNA concentrations were determined using an Amersham Ultrospec® 3100 Pro spectrophotometer, and RNA quality was evaluated with an Agilent Technologies 2100 Bioanalyzer®. […]
qPCR Ct values were analyzed using an in-house developed Microsoft Excel® macro file. […] Ct values were converted to quantities relative to the maximum for each given gene. Selected reference genes were then analyzed for variance using the geNorm algorithm. […]
Adult C57BL/6 mice were exposed to 5% acetophenone for 5 hours, and the level of transcripts of odorant receptors' genes were measured by RT-qPCR on extracts of olfactory epithelia from these mice, as described in the materials and methods section.

olfr145 [2] = target: T5, olfr145; test: OR transcript downregulation by RNAseq after in vivo exposure; conditions: 5% odorant, 5 hours
Experimental: Animals were exposed to 5% acetophenone for 5 hours before RNA extraction (as previously described). cDNA libraries were generated with the Truseq RNA and DNA sample preparation kits after selection of polyA-containing mRNAs. Adapters for RNAseq multiplexing were added to the cDNAs. The cDNA libraries were sequenced with a HiSeq®2500 Sequencing system. 100 bp reads were mapped using Bowtie2 with a 28 bp seed. The differential gene expression analyses were performed with DESeq2. Because of the high sequence similarity between OR gene paralogs, some reads are mapped to multiple OR genes. These reads were removed from the analysis.
as §6

T5 sequence (Q60882 whole entry): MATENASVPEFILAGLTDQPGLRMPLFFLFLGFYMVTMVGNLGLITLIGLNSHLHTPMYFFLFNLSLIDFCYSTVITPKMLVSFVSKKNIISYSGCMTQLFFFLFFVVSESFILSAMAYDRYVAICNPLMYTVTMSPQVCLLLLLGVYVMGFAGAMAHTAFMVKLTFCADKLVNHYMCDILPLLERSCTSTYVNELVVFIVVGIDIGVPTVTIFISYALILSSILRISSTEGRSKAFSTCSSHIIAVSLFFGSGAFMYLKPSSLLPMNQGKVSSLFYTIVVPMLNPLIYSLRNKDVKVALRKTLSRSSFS
T2 sequence (Q9JHB2 whole entry): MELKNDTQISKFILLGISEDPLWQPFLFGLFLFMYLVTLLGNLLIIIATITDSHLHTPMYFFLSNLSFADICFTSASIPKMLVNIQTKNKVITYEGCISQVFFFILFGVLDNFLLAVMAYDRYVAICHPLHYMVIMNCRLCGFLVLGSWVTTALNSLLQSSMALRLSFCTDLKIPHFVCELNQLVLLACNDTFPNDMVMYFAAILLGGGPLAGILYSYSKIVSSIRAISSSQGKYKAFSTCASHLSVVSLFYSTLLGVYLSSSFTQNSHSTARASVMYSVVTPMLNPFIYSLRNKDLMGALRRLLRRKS
T6 sequence (P34985 whole entry): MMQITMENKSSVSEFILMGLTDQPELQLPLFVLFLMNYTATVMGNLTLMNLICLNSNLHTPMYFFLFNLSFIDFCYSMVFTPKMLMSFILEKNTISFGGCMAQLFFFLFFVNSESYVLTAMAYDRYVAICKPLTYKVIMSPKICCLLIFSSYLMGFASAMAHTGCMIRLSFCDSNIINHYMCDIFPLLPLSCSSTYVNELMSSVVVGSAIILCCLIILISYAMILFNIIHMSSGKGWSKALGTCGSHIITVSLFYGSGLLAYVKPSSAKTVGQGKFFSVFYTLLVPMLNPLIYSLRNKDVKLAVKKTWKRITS
T3 sequence (Q8VGI4 whole entry): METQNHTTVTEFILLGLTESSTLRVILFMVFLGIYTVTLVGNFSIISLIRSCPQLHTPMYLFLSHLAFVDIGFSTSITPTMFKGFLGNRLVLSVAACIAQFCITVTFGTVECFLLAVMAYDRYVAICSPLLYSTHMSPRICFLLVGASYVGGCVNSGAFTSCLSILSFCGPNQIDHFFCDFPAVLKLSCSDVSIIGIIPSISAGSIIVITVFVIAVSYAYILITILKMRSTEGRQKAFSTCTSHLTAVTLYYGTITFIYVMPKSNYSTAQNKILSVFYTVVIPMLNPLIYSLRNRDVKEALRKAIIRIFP
T1 sequence (Q8VG04 whole entry): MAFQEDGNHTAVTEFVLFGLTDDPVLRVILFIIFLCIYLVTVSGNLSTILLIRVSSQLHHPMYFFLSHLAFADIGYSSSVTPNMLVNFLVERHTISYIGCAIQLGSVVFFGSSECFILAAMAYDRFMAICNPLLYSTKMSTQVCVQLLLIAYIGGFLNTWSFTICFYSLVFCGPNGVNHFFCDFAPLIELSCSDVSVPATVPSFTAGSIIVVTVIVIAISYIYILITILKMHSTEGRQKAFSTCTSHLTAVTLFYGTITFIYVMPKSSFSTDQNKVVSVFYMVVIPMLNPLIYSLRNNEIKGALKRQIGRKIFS
T4 sequence (Q8VFD2 whole entry): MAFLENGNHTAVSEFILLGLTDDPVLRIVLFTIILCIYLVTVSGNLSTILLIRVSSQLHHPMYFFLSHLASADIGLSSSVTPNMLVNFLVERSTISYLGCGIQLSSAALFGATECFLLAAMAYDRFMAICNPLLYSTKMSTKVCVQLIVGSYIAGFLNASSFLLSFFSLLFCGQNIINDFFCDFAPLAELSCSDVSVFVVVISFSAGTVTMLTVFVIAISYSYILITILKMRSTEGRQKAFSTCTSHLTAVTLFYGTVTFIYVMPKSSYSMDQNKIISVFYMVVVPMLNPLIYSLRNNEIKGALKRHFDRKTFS

## CC(=O)c1ccccc1 [acetophenone]
olfr935
  olfr935 candidate OR (RNAseq) confirmed by qPCR: y
olfr922
  olfr922 candidate OR (RNAseq) confirmed by qPCR: y
olfr478
  olfr478 candidate OR (RNAseq) confirmed by qPCR: y
olfr19
  olfr19 candidate OR (RNAseq) confirmed by qPCR: y
olfr476
  olfr476 candidate OR (RNAseq) confirmed by qPCR: y
olfr490
  olfr490 candidate OR (RNAseq) confirmed by qPCR: n
olfr145 [1]
  olfr145 candidate OR (RNAseq) confirmed by qPCR: y
olfr143
  olfr143 candidate OR (RNAseq) confirmed by qPCR: y
Olfr1178
  Olfr1178 mRNA concentration increase, fold change: 1.5 fold
olfr145 [2]
  Olfr145 transcript decrease relative to controls (RNAseq): 74%
